Reference: patent US4264625A, “Pesticidal unsymmetrical bis-arylcarbamate sulfide compounds” (Union Carbide Corporation, priority 1978, dated 1981)

Assays:
Type in all cases: in vivo
[1] = system: bean aphid (Aphis fabae Scop.); experiment: Bean Aphid Foliage Spray Test; design: key: A: excellent control; B: partial control; C: no control; details: 500 ppm foliage spray, 24 hours, mortality rating
Description: (§1) Suspensions of the test compounds were prepared by dissolving one gram of compound in 50 milliliters of acetone in which had been dissolved 0.1 gram (10 percent of the weight of compound) of an alkylphenoxy polyethoxyethanol surfactant, as an emulsifying or dispersing agent. The resulting solution was mixed into 150 milliliters of water to give roughly 200 milliliters of a suspension containing the compound in finely divided form. The thus-prepared stock suspension contained 0.5 percent by weight of compound. The test concentrations in parts per million by weight employed in the tests described hereinbelow were obtained by appropriate dilutions of the stock suspension with water. The test procedures were as follows:
Bean Aphid Foliage Spray Test
Adults and nymphal stages of the bean aphid (Aphis fabae Scop.) reared on potted dwarf nasturtium plants at 65°-70° F. and 50-70 percent relative humidity, constituted the test insects. For testing purposes, the number of aphids per pot was standardized to 100-150 by trimming plants containing excess aphids.
The test compounds were formulated by diluting the stock suspension with water to give a suspension containing 500 parts of test compound per million parts of final formulation.
The potted plants (one pot per compound tested) infested with 100-150 aphids, were placed on a revolving turntable and sprayed with 100-110 milliliters of test compound formulation by use of a DeVilbiss spray gun set at 40 psig. air pressure. This application, which lasted 25 seconds, was sufficient to wet the plants to run-off. As a control, 100-110 milliliters of a water-acetone-emulsifier solution containing no test compound were also sprayed on infested plants. After spraying, the pots were placed on their sides on a sheet of white standard mimeograph paper which had been previously ruled to facilitate counting. Temperature and humidity in the test room during the 24 hour holding period were 65°-70° F. and 50-70 percent, respectively. Aphids which fell onto the paper and were unable to remain standing after being uprighted were considered dead. Aphids remaining on the plants were observed closely for movement and those which were unable to move the length of the body upon stimulation by prodding were considered dead. Percent mortality was recorded for various concentration levels.
(§2) In these tests the pesticidal activity of the compounds against aphid, mite, Southern Armyworm, Bean Beetle and house fly was rated as follows: […]

[2] = system: two-spotted mite (Tetranychus urticae Koch); experiment: Mite Foliage Spray Test; design: key: A: excellent control; B: partial control; C: no control; details: 500 ppm foliage spray, six days, mortality rating
Description: as §1
Adults and nymphal stages of the two-spotted mite (Tetranychus urticae Koch), reared on Tendergreen bean plants at 80±5 percent relative humidity, were the test organisms. Infested leaves from a stock culture were placed on the primary leaves of two bean plants six to eight inches in height, growing in a two-and-a-half inch clay pot. 150-200 Mites, a sufficient number for testing, transferred from the excised leaves to the fresh plants in a period of twenty four hours. Following the twenty four hour transfer period, the excised leaves were removed from the infested plants. The test compounds were formulated by diluting the stock suspension with water to give a suspension containing 500 parts of test compound per million parts of final formulation. The potted plants (one pot per compound) were placed on a revolving turntable and sprayed with 100-110 milliliters of test compound formulation by use of a DeVilbiss spray gun set at 40 psig. air pressure. This application, which lasted 25 seconds, was sufficient to wet the plants to run-off. As a control, 100-110 milliliters of a water solution containing acetone and emulsifier in the same concentrations as the test compound formulation, but containing no test compound, were also sprayed on infested plants. The sprayed plants were held at 80±5 percent relative humidity for six days, after which a mortality count of motile forms was made. Microscopic examination for motile forms was made on the leaves of the test plants. Any individual which was capable of locomotion upon prodding was considered living.
as §2

[3] = system: southern armyworm (Prodenia eridania, (Cram.)); experiment: Southern Armyworm Leaf Spray Test; design: key: A: excellent control; B: partial control; C: no control; details: 500 ppm leaf spray, larvae, three days, mortality rating
Description: as §1
Southern Armyworm Leaf Spray Test
Larvae of the southern armyworm (Prodenia eridania, (Cram.)), reared on Tendergreen bean plants at a temperature of 80°±5° F. and a relative humidity of 50±5 percent, constituted the test insects.
The test compounds were formulated by diluting the stock suspension with water to give a suspension containing 500 parts of test compound per million parts of final formulation. Potted Tendergreen bean plants of standard height and age were placed on a revolving turntable and sprayed with 100-110 milliliters of test compound formulation by use of a DeVilbiss spray gun set at 10 psig air pressure. This application, which lasted 25 seconds, was sufficient to wet plants to run-off. As a control, 100-110 milliliters of a water-acetone-emulsifier solution containing no test compound were also sprayed on infested plants. When dry, the paired leaves were separated and each one was placed in a 9 centimeter Petri dish lined with moistened filter paper. Five randomly selected larvae were introduced into each dish and the dishes were closed. The closed dishes were labeled and held at 80°-85° F. for three days. Although the larvae could easily consume the whole leaf within twenty-four hours, no more food was added. Larvae which were unable to move the length of the body, even upon stimulation by prodding, were considered dead. Percent mortality was recorded for various concentration levels.
as §2

[4] = system: Mexican bean beetle (Epilachna varivestis, Muls.); experiment: Mexican Bean Beetle Leaf Spray Test; design: key: A: excellent control; B: partial control; C: no control; details: 500 ppm leaf spray, fourth instar larvae, three days, mortality rating
Description: as §1
Mexican Bean Beetle Leaf Spray Test
Fourth instar larvae of the Mexican bean beetle (Epilachna varivestis, Muls.), reared on Tendergreen bean plants at a temperature of 80°±5° F. and 50±5 percent relative humidity, were the test insects.
The test compounds were formulated by diluting the stock suspension with water to give a suspension containing 500 parts of test compound per million parts of final formulation. Potted Tendergreen bean plants of standard height and age were placed on a revolving turntable and sprayed with 100-110 milliliters of test compound formulation by use of a DeVilbiss spray gun set at 10 psig air pressure. This application, which lasted 25 seconds, was sufficient to wet plants to run-off. As a control, 100-110 milliliters of a water-acetone-emulsifier solution containing no test compound were also sprayed on infested plants. When dry, the paired leaves were separated and each was placed in a 9 centimeter Petri dish lined with moistened filter paper. Five randomly selected larvae were introduced into each dish, and the dishes were closed. The closed dishes were labeled and held at a temperature of 80°±5° F. for three days. Although the larvae could easily consume the leaf within 24 to 48 hours, no more food was added. Larvae which were unable to move the length of the body, even upon stimulation, were considered dead.
as §2

[5] = system: house flies (Musca domestica, L.); experiment: Fly Bait Test; design: key: A: excellent control; B: partial control; C: no control; details: 500 ppm in sugar-solution bait, 24 hours, mortality rating
Description: as §1
Four to six day old adult house flies (Musca domestica, L.) reared according to the specifications of the Chemical Specialties Manufacturing Association (Blue Book, McNair-Dorland Co., N.Y. 1954; pages 243-244, 261) under controlled conditions of 80°±5° F. and 50±5 percent relative humidity, were the test insects. The flies were immobilized by anesthetizing with carbon dioxide and twenty five immobilized individuals, males and females, were transferred to a cage consisting of a standard food strainer about five inches in diameter which was inverted over a wrapping-paper-covered surface. The test compounds were formulated by diluting the stock suspension with a 10 percent (by weight) sugar solution to give a suspension containing 500 parts of test compound per million parts of final formulation, by weight. Ten milliliters of the test formulation were added to a souffle cup containing a one-inch square of an absorbent cotton pad. This bait cup was introduced and centered on the blotting paper under the food strainer prior to admitting the anesthetized flies. The caged flies were allowed to feed on the bait for twenty four hours, at a temperature of 80°±5° F. and the relative humidity of 50±5 percent.
as §2

Bean = details: 2500 ppm spray, ten days, rating 1-5
Description: (§3) POST-EMERGENT HERBICIDAL TEST
(§4) Experiments were also conducted to determine the phytotoxicity of representative compositions with respect to healthy fresh plants. Solutions of the compounds were prepared as described above to provide a concentration of 2500 parts per million of the test compound. The test plants were sprayed in accordance with the procedure described above for the Mite Foliage Spray Test so as to deliver approximately 100 milliliters of test solution to the leaves of each plant tested. The sprayed plants and controls were set aside for approximately one hour to allow the solutions to dry and were then placed in the greenhouse. After ten days the plants were visually inspected to determine the extent of foliage injury. A rating of 1 indicates no perceptible injury; 5 indicates the plant was dead and ratings of 2, 3 and 4 indicate intermediate degrees of injury based upon the number and extent to which leaves were injured.

Corn = details: 2500 ppm spray, ten days, rating 1-5
Description: as §3, §4

Cotton = details: 2500 ppm spray, ten days, rating 1-5
Description: as §3, §4

Soybean = details: 2500 ppm spray, ten days, rating 1-5
Description: as §3, §4

Tomato = details: 2500 ppm spray, ten days, rating 1-5
Description: as §3, §4

| SMILES | Pesticidal Activity, Aphid [1] | Pesticidal Activity, Mite [2] | Pesticidal Activity, Southern Armyworm [3] | Pesticidal Activity, Mexican Bean Beetle [4] | Pesticidal Activity, House fly [5] | Phytotoxicity, Bean (Bean) | Phytotoxicity, Corn (Corn) | Phytotoxicity, Cotton (Cotton) | Phytotoxicity, Soybean (Soybean) | Phytotoxicity, Tomato (Tomato) |
| --- | --- | --- | --- | --- | --- | --- | --- | --- | --- | --- |
| CN(SN(C)C(=O)Oc1cccc2c1OC(C)(C)C2)C(=O)Oc1ccccc1C1SCCS1 | A | B | A | A | A | 1 | 1 | 1 | 1 | 1 |
| C#CCOc1ccccc1OC(=O)N(C)SN(C)C(=O)Oc1cccc2ccccc12 | A | C | A | A | A | 1 | 1 | 1 | 2 | 1 |
| C=CCc1ccc(OC(=O)N(C)SN(C)C(=O)Oc2ccc(CC=C)cc2OC)c(OC)c1 | C | C | C | C | C | 1 | 1 | 1 | 1 | 1 |
| COC(=O)Nc1ccc(OC(=O)N(C)SN(C)C(=O)Oc2ccc(NC(=O)OC)c(C(C)C)c2)cc1C(C)C | C | C | A | A | C | 1 | 1 | 1 | 1 | 1 |
| CN(SN(C)C(=O)Oc1ccccc1C1SCCS1)C(=O)Oc1ccccc1C1SCCS1 | A | C | A | A | A | 1 | 1 | 1 | 1 | 1 |
| CN(SN(C)C(=O)Oc1ccc(Oc2ccccc2)cc1)C(=O)Oc1ccc(Oc2ccccc2)cc1 | C | C | C | C | C | 1 | 1 | 1 | 1 | 1 |
| CCCCCCCCCc1ccc(OC(=O)N(C)SN(C)C(=O)Oc2cccc3ccccc23)cc1 | C | C | A | A | C | 1 | 1 | 1 | 1 | 1 |
| CCCCCCCCCCCCc1ccc(OC(=O)N(C)SN(C)C(=O)Oc2cccc3ccccc23)cc1 | C | C | A | A | C | 1 | 1 | 1 | 1 | 1 |
| Cc1cc(OC(=O)N(C)SN(C)C(=O)Oc2ccc(N=CN(C)C)c(C)c2)ccc1N=CN(C)C [drawing 37] | A | A | A | A | A | 1 | 1 | 1 | 1 | 1 |
| Cc1cc(OC(=O)N(C)SN(C)C(=O)Oc2ccc(N=CN(C)C)c(C)c2)ccc1N=CN(C)C [drawing 39] | A | A | A | A | A | 2 | 1 | 1 | 2 | 1 |
